From US20160138114A1, “Biomarkers of Response to Inhibition of Poly-ADP Ribose Polymerase (PARP) in Cancer” (THE REGENTS OF THE UNIVERSITY OF CALIFORNIA, priority 2013, published 2016)
pIC50: −log10 of the molar value.

Experiments:
184B5 = experiment: BMN673 sensitivity (cell growth) in cancer cell line; format: cell-based, human; settings: 184B5, Breast
Protocol: (§1) This example illustrates that CHD1L amplification correlated with overexpression of CHD1L protein. […] CHD1L protein expression in the NSCLC and breast cancer cell lines was assayed by Western blot with antibodies against CHD1L. […] HCC1937 was used as a negative control for CHD1L protein expression, as the cell line carries a loss of heterozygosity (LOH) of CHD1L. Each of these cell lines was also assayed for sensitivity or resistance to inhibition of PARP by BMN673. Briefly, each cell line was cultured and exposed to a range of concentrations of BMN673 to determine an IC50 value of inhibitory effect on PARP (as evidenced by cell growth) for each cell line (see Table 2).

BT-20 = experiment: as above; format: cell-based, human; settings: BT-20, Breast
Protocol: as §1

BT-474 = experiment: as above; format: cell-based, human; settings: BT-474, Breast
Protocol: as §1

CaLu1 = experiment: as above; format: cell-based, human; settings: CaLu1, Lung
Protocol: as §1

EMF192A = experiment: as above; format: cell-based, human; settings: Breast
Protocol: as §1

H1568 = experiment: as above; format: cell-based, human; settings: H1568, Lung
Protocol: as §1

H1651 = experiment: as above; format: cell-based, human; settings: H1651, Lung
Protocol: as §1

H1838 = experiment: as above; format: cell-based, human; settings: H1838, Lung
Protocol: as §1

HCC1187 = experiment: as above; format: cell-based, human; settings: HCC1187, Breast
Protocol: as §1

HCC1937 = experiment: as above; format: cell-based, human; settings: HCC1937, Breast
Protocol: as §1

MCF7 = experiment: as above; format: cell-based, human; settings: MCF7, Breast
Protocol: as §1

MDA-MB-436 = experiment: as above; format: cell-based, human; settings: MDA-MB-436, Breast
Protocol: as §1

184B5 parental cell line = experiment: BMN673 treatment of CHD1L knock-in study, parental line; format: cell-based; settings: Homo sapiens, low CHD1L protein expression
Protocol: (§2) This example illustrates the creation of cell lines overexpressing CHD1L protein by vector knock-in. Briefly, breast cancer cell line 184B5 cells were transduced with lentivirus containing CHD1L cDNA. After transduction, clones transfected with CHD1L were selected with 500 μg/mL G418 for 1 week. Expression of CHD1L protein in the 24 knock-in clones and the parental cell line 184B5 was detected by Western blot. […] This example illustrates that the knock-in of CHD1L protein sensitized breast cancer cells to BMN673 treatment. Briefly, 184B5 knock-in clones 7 and 14 (i.e., cells with high CHD1L protein expression) were treated with BMN673 and compared with the 184B5 parental cell line (i.e., cells with low CHD1L protein expression) treated with BMN673, with respect to percent death from baseline (FIG. 5, top panel) and percent growth inhibition (FIG. 5, bottom panel).

[1] = system: 184B5 CHD1L knock-in clone 14; experiment: BMN673 treatment of CHD1L knock-in clone; format: cell-based; settings: Homo sapiens; 184B5 knock-in clone 14, high CHD1L protein expression
Protocol: as §2

[2] = system: 184B5 CHD1L knock-in clone 7; experiment: BMN673 treatment of CHD1L knock-in clone; format: cell-based; settings: Homo sapiens; 184B5 knock-in clone 7, high CHD1L protein expression
Protocol: as §2

pIC50 (184B5; Homo sapiens, 1q21 NC): 5.26
pIC50 (BT-20; Homo sapiens, 1q21 NC): 6.45
pIC50 (BT-474; Homo sapiens, 1q21 NC): 6.23
pIC50 (CaLu1; Homo sapiens, Calu-1, 1q21 NC): 5.59
pIC50 (EMF192A; Homo sapiens, 1q21 NC): 6.05
pIC50 (H1568; Homo sapiens, NCI-H1568, 1q21 AMP): 7.30
pIC50 (H1651; Homo sapiens, NCI-H1651, 1q21 AMP): 8.20
pIC50 (H1838; Homo sapiens, NCI-H1838, 1q21 AMP): 8.92
pIC50 (HCC1187; Homo sapiens, 1q21 AMP): 8.96
pIC50 (HCC1937; Homo sapiens, 1q21 LOH): 7.07
pIC50 (MCF7; Homo sapiens, 1q21 AMP): 7.03
pIC50 (MDA-MB-436; Homo sapiens, 1q21 AMP): 9.72
pIC50 [1]: 7.52
pIC50 [2]: 7.21
SMILES: Cn1ncnc1[C@H]1c2n[nH]c(=O)c3cc(F)cc(c23)N[C@@H]1c1ccc(F)cc1 [BMN673]
Response (184B5): resistant and Res
Response (BT-20): resistant and Res
Response (BT-474): resistant and Res
Response (CaLu1): resistant and Res
Response (EMF192A): resistant and Res
Response (H1568): Int
Response (H1651): sensitive and Sens
Response (H1838): sensitive and Sens
Response (HCC1187): sensitive and Sens
Response (HCC1937): Int
Response (MCF7): sensitive and Int
Response (MDA-MB-436): sensitive and Sens
pIC50 (184B5 parental cell line): ~6.00
